Source: patent US20050202973A1, “Aryl-alkyne compounds as herbicides” (priority 2002, published 2005)

Tests used:
Format in all cases: in vivo
[1] = tested on: Amaranthus (Amara); assay: Post-emergence herbicidal action (Example B2); set-up: key: 1=total damage; 9=no action; Ratings of from 1 to 4 (especially from 1 to 3) indicate good to very good herbicidal action; conditions: 1000 g of active compound per ha; post-emergence spray at 2- to 3-leaf stage; evaluated after 2 to 3 weeks; scale 1=total damage, 9=no action
Protocol: (§1) Monocotyledonous and dicotyledonous test plants are sown in standard soil in pots. When the test plants are at the 2- to 3-leaf stage, the test compounds, in the form of an aqueous suspension (prepared from a wettable powder (Example F3, b) according to WO 97/34485) or in the form of an emulsion (prepared from an emulsifiable concentrate (Example F1, c) according to WO 97/34485), are applied by spraying, in an optimum concentration (500 litres of water per ha). The test plants are then grown on in a greenhouse under optimum conditions. After a test duration of 2 to 3 weeks, the test is evaluated in accordance with a scale of nine ratings (1=total damage, 9=no action). Ratings of from 1 to 4 (especially from 1 to 3) indicate good to very good herbicidal action. Test plants. Panicum (Pani), Euphorbia (Euph), Abutilon (Abut), Amaranthus (Amara), Stellaria (Stell), Veronica (Vero).

[2] = tested on: Stellaria (Stell); assay: Post-emergence herbicidal action (Example B2); set-up: key: 1=total damage; 9=no action; Ratings of from 1 to 4 (especially from 1 to 3) indicate good to very good herbicidal action; conditions: 1000 g of active compound per ha; post-emergence spray at 2- to 3-leaf stage; evaluated after 2 to 3 weeks; scale 1=total damage, 9=no action
Protocol: as §1

[3] = tested on: Euphorbia (Euph); assay: Post-emergence herbicidal action (Example B2); set-up: key: 1=total damage; 9=no action; Ratings of from 1 to 4 (especially from 1 to 3) indicate good to very good herbicidal action; conditions: 1000 g of active compound per ha; post-emergence spray at 2- to 3-leaf stage; evaluated after 2 to 3 weeks; scale 1=total damage, 9=no action
Protocol: as §1

[4] = tested on: Veronica (Vero); assay: Post-emergence herbicidal action (Example B2); set-up: key: 1-9 scale: 1 = total damage, 9 = no action; conditions: 1000 g of active compound per ha; post-emergence spray at 2- to 3-leaf stage; evaluated after 2 to 3 weeks; scale 1=total damage, 9=no action
Protocol: as §1

[5] = tested on: Abutilon (Abut); assay: Pre-emergence herbicidal action (Example B1); set-up: key: 1=total damage; 9=no action; Ratings of from 1 to 4 (especially from 1 to 3) indicate good to very good herbicidal action; conditions: 1000 g of active compound per ha; sprayed immediately after sowing; evaluated after 4 weeks; scale of nine ratings (1=total damage, 9=no action)
Protocol: (§2) Monocotyledonous and dicotyledonous test plants are sown in standard soil in pots. Immediately after sowing, the test compounds, in the form of an aqueous suspension (prepared from a wettable powder (Example F3, b) according to WO 97/34485) or in the form of an emulsion (prepared from an emulsifiable concentrate (Example F1, c) according to WO 97/34485), are applied by spraying, in an optimum concentration (500 litres of water per ha). The test plants are then grown in a greenhouse under optimum conditions. After a test duration of 4 weeks, the test is evaluated in accordance with a scale of nine ratings (1=total damage, 9=no action). Ratings of from 1 to 4 (especially from 1 to 3) indicate good to very good herbicidal action. Test plants: Panicum (Pani), Digitaria (Digit), Euphorbia (Euph), Sida, Abutilon (Abut), Amaranthus (Amar), Chenopodium (Cheno), Stellaria (Stell).

[6] = tested on: Amaranthus (Amar); assay: Pre-emergence herbicidal action (Example B1); set-up: key: 1=total damage; 9=no action; Ratings of from 1 to 4 (especially from 1 to 3) indicate good to very good herbicidal action; conditions: 1000 g of active compound per ha; sprayed immediately after sowing; evaluated after 4 weeks; scale of nine ratings (1=total damage, 9=no action)
Protocol: as §2

[7] = tested on: Sida; assay: Pre-emergence herbicidal action (Example B1); set-up: key: 1=total damage; 9=no action; Ratings of from 1 to 4 (especially from 1 to 3) indicate good to very good herbicidal action; conditions: 1000 g of active compound per ha; sprayed immediately after sowing; evaluated after 4 weeks; scale of nine ratings (1=total damage, 9=no action)
Protocol: as §2

[8] = tested on: Chenopodium (Cheno); assay: Pre-emergence herbicidal action (Example B1); set-up: key: 1=total damage; 9=no action; Ratings of from 1 to 4 (especially from 1 to 3) indicate good to very good herbicidal action; conditions: 1000 g of active compound per ha; sprayed immediately after sowing; evaluated after 4 weeks; scale of nine ratings (1=total damage, 9=no action)
Protocol: as §2

[9] = tested on: Digitaria (Digit); assay: Pre-emergence herbicidal action (Example B1); set-up: key: 1=total damage; 9=no action; Ratings of from 1 to 4 (especially from 1 to 3) indicate good to very good herbicidal action; conditions: 1000 g of active compound per ha; sprayed immediately after sowing; evaluated after 4 weeks; scale of nine ratings (1=total damage, 9=no action)
Protocol: as §2

[10] = tested on: Stellaria (Stell); assay: Pre-emergence herbicidal action (Example B1); set-up: key: 1=total damage; 9=no action; Ratings of from 1 to 4 (especially from 1 to 3) indicate good to very good herbicidal action; conditions: 1000 g of active compound per ha; sprayed immediately after sowing; evaluated after 4 weeks; scale of nine ratings (1=total damage, 9=no action)
Protocol: as §2

[11] = tested on: Euphorbia (Euph); assay: Pre-emergence herbicidal action (Example B1); set-up: key: 1=total damage; 9=no action; Ratings of from 1 to 4 (especially from 1 to 3) indicate good to very good herbicidal action; conditions: 1000 g of active compound per ha; sprayed immediately after sowing; evaluated after 4 weeks; scale of nine ratings (1=total damage, 9=no action)
Protocol: as §2

[12] = tested on: Panicum (Pani); assay: Pre-emergence herbicidal action (Example B1); set-up: key: 1=total damage; 9=no action; Ratings of from 1 to 4 (especially from 1 to 3) indicate good to very good herbicidal action; conditions: 1000 g of active compound per ha; sprayed immediately after sowing; evaluated after 4 weeks; scale of nine ratings (1=total damage, 9=no action)
Protocol: as §2

[13] = tested on: Abutilon (Abut); assay: Post-emergence herbicidal action (Example B2); set-up: key: 1=total damage; 9=no action; Ratings of from 1 to 4 (especially from 1 to 3) indicate good to very good herbicidal action; conditions: 1000 g of active compound per ha; post-emergence spray at 2- to 3-leaf stage; evaluated after 2 to 3 weeks; scale 1=total damage, 9=no action
Protocol: as §1

[14] = tested on: Panicum (Pani); assay: Post-emergence herbicidal action (Example B2); set-up: key: 1=total damage; 9=no action; Ratings of from 1 to 4 (especially from 1 to 3) indicate good to very good herbicidal action; conditions: 1000 g of active compound per ha; post-emergence spray at 2- to 3-leaf stage; evaluated after 2 to 3 weeks; scale 1=total damage, 9=no action
Protocol: as §1

N#CCc1ccc(F)c(C#CCOc2ncc(Cl)cn2)c1 [7.028]
Post-emergence herbicidal action rating, Amar [1]: 1 | Post-emergence herbicidal action rating, Stell [2]: 1 | Post-emergence herbicidal action rating, Euph [3]: 1 | Post-emergence herbicidal action rating, Vero [4]: 2

COc1nc(Cl)cnc1OCC#Cc1cccc(CC#N)c1 [Compound 1.041, {3-[3-(5-chloro-3-methoxy-pyrazin-2-yloxy)-prop-1-ynyl]-phenyl}-acetonitrile]
Pre-emergence herbicidal action rating, Abut [5]: 1 | Pre-emergence herbicidal action rating, Amar [6]: 1 | Pre-emergence herbicidal action rating, Sida [7]: 1 | Pre-emergence herbicidal action rating, Cheno [8]: 1 | Pre-emergence herbicidal action rating, Digit [9]: 1 | Pre-emergence herbicidal action rating, Stell [10]: 1 | Pre-emergence herbicidal action rating, Euph [11]: 1 | Pre-emergence herbicidal action rating, Pani [12]: 1 | Post-emergence herbicidal action rating, Abut [13]: 2 | Post-emergence herbicidal action rating, Amar [1]: 2 | Post-emergence herbicidal action rating, Stell [2]: 2 | Post-emergence herbicidal action rating, Euph [3]: 1 | Post-emergence herbicidal action rating, Pani [14]: 2 | Post-emergence herbicidal action rating, Vero [4]: 2

COc1nccnc1OCC#Cc1cccc(CC#N)c1 [Compound 1.048]
Pre-emergence herbicidal action rating, Abut [5]: 1 | Pre-emergence herbicidal action rating, Amar [6]: 1 | Pre-emergence herbicidal action rating, Sida [7]: 1 | Pre-emergence herbicidal action rating, Cheno [8]: 1 | Pre-emergence herbicidal action rating, Digit [9]: 2 | Pre-emergence herbicidal action rating, Stell [10]: 1 | Pre-emergence herbicidal action rating, Euph [11]: 1 | Pre-emergence herbicidal action rating, Pani [12]: 4 | Post-emergence herbicidal action rating, Abut [13]: 3 | Post-emergence herbicidal action rating, Amar [1]: 1 | Post-emergence herbicidal action rating, Stell [2]: 2 | Post-emergence herbicidal action rating, Euph [3]: 1 | Post-emergence herbicidal action rating, Pani [14]: 4 | Post-emergence herbicidal action rating, Vero [4]: 2

N#CCc1cc(C#CCOc2ncc(F)cn2)ccc1F [7.027]
Post-emergence herbicidal action rating, Abut [13]: 4 | Post-emergence herbicidal action rating, Amar [1]: 2 | Post-emergence herbicidal action rating, Stell [2]: 3 | Post-emergence herbicidal action rating, Euph [3]: 2 | Post-emergence herbicidal action rating, Pani [14]: 1 | Post-emergence herbicidal action rating, Vero [4]: 4

COc1nc(C)ncc1OCC#Cc1cccc(CC#N)c1 [4.033]
Post-emergence herbicidal action rating, Abut [13]: 3 | Post-emergence herbicidal action rating, Amar [1]: 3 | Post-emergence herbicidal action rating, Stell [2]: 2 | Post-emergence herbicidal action rating, Euph [3]: 2 | Post-emergence herbicidal action rating, Pani [14]: 2 | Post-emergence herbicidal action rating, Vero [4]: 4

N#CCc1cccc(C#CCOc2ncc(F)cn2)c1 [7.008]
Post-emergence herbicidal action rating, Abut [13]: 2 | Post-emergence herbicidal action rating, Amar [1]: 2 | Post-emergence herbicidal action rating, Stell [2]: 2 | Post-emergence herbicidal action rating, Euph [3]: 2 | Post-emergence herbicidal action rating, Pani [14]: 2 | Post-emergence herbicidal action rating, Vero [4]: 2

N#CCc1cccc(C#CCOc2ncc(Cl)cn2)c1 [7.021]
Post-emergence herbicidal action rating, Abut [13]: 2 | Post-emergence herbicidal action rating, Amar [1]: 1 | Post-emergence herbicidal action rating, Stell [2]: 3 | Post-emergence herbicidal action rating, Euph [3]: 1 | Post-emergence herbicidal action rating, Pani [14]: 2 | Post-emergence herbicidal action rating, Vero [4]: 3

N#CCc1cc(C#CCOc2ncc(Cl)cn2)c(F)cc1F [7.031]
Post-emergence herbicidal action rating, Abut [13]: 3 | Post-emergence herbicidal action rating, Amar [1]: 2 | Post-emergence herbicidal action rating, Stell [2]: 3 | Post-emergence herbicidal action rating, Euph [3]: 3 | Post-emergence herbicidal action rating, Pani [14]: 2 | Post-emergence herbicidal action rating, Vero [4]: 2

COc1cncnc1OCC#Cc1cccc(CC#N)c1 [Compound 5.025, {3-[3-(5-methoxy-pyrimidin-4-yloxy)-prop-1-ynyl]-phenyl}-acetonitrile]
Post-emergence herbicidal action rating, Abut [13]: 1 | Post-emergence herbicidal action rating, Amar [1]: 4 | Post-emergence herbicidal action rating, Stell [2]: 1 | Post-emergence herbicidal action rating, Euph [3]: 1 | Post-emergence herbicidal action rating, Pani [14]: 2 | Post-emergence herbicidal action rating, Vero [4]: 4

N#CCc1cccc(C#CCOc2ncc(Br)cn2)c1 [Compound 7.006]
Pre-emergence herbicidal action rating, Abut [5]: 2 | Pre-emergence herbicidal action rating, Cheno [8]: 1 | Pre-emergence herbicidal action rating, Stell [10]: 1 | Pre-emergence herbicidal action rating, Euph [11]: 1 | Pre-emergence herbicidal action rating, Pani [12]: 2 | Post-emergence herbicidal action rating, Abut [13]: 3 | Post-emergence herbicidal action rating, Amar [1]: 2 | Post-emergence herbicidal action rating, Stell [2]: 4 | Post-emergence herbicidal action rating, Euph [3]: 1 | Post-emergence herbicidal action rating, Pani [14]: 5 | Post-emergence herbicidal action rating, Vero [4]: 5

N#CCc1cc(C#CCOc2ncc(Cl)cn2)ccc1F [Compound 7.022]
Pre-emergence herbicidal action rating, Abut [5]: 1 | Pre-emergence herbicidal action rating, Amar [6]: 1 | Pre-emergence herbicidal action rating, Sida [7]: 1 | Pre-emergence herbicidal action rating, Cheno [8]: 3 | Pre-emergence herbicidal action rating, Digit [9]: 1 | Pre-emergence herbicidal action rating, Stell [10]: 1 | Pre-emergence herbicidal action rating, Euph [11]: 3 | Pre-emergence herbicidal action rating, Pani [12]: 1 | Post-emergence herbicidal action rating, Amar [1]: 1 | Post-emergence herbicidal action rating, Stell [2]: 3 | Post-emergence herbicidal action rating, Euph [3]: 1 | Post-emergence herbicidal action rating, Pani [14]: 2 | Post-emergence herbicidal action rating, Vero [4]: 2
